Measured values published in ChEMBL document CHEMBL1134634, “Rapid enantiomeric quantification of an antiviral nucleoside agent (D,L-FMAU, 2'-fluoro-5-methyl-beta,D,L-arabinofurano-syluracil) by mass spectrometry” (J Med Chem, 2001).

Tested on: Hepatitis B virus
Assay: Effective concentration against hepatitis B virus
Assay type: functional, organism-based

EC50: 130 nM
SMILES: Cc1cn([C@@H]2O[C@H](CO)[C@@H](O)[C@@H]2F)c(=O)[nH]c1=O [5-METHYL-2'-FLUOROARAURACIL]
